Data as given in patent US20220143222A1, “SUBCUTANEOUS AND INTRAMUSCULAR ADMINISTRATION OF PYRAZINE COMPOUNDS” (MediBeacon Inc., priority 2020, published 2022).

Test: Storage of concentrated MB-102 salt solution at 4° C. (precipitation)
Type: physicochemical
Conditions: 64.2 wt % solution in water, 4° C. for 7 days
Method: MB-102 (0.300 g, 0.81 mmol), was placed in a vial (4.0 mL). Water was added (0.8 mL, D.I.) and the mixture sonicated for a brief period of time. To the mixture was added aqueous 6.25 N NaOH (2 equivalents, 1.62 mmol, 0.24 mL, added in portions; 0.020 mL×12 to effect solution) with stirring and brief periods of sonication. […] The final concentration was 300 mg (2R,2′R)-2,2′-((3,6-diaminopyrazine-2,5-dicarbonyl)bis(azanediyl))bis(3-hydroxypropanoic acid), MB-102 per mL water (w/v).
MB-102 (0.30 g, 0.81 mmol) was weighed into a 5 mL v-vial equipped with a Teflon-covered magnetic spin vane. Choline hydroxide in water (Aldrich, 0.43 g of 46 wt %, 1.62 mmol) was added portion-wise with stirring until a solution was obtained. The total weight of the solution was 0.73 g or 64.2 wt % MB-102 di-choline salt (MW: 578.6).

C[N+](C)(C)CCO.C[N+](C)(C)CCO.Nc1nc(C(=O)NC(CO)C(=O)[O-])c(N)nc1C(=O)NC(CO)C(=O)[O-] (stereo not shown) [MB-102 di-choline salt]
precipitation on storage: no precipitation
